Measurements reported in patent publication US12389930B2, “Breast milk-derived Lactobacillus plantarum and use thereof” (Beijing Sanyuan Foods Co., Ltd., priority 2020, dated 2025).
Values after ≈ are worked out from the molar mass of the structure shown.

System: Lactobacillus plantarum P6
Assay: Drug resistance determination (E-test strips, MIC)
Assay type: cell-based
Set-up: key to Susceptibility class of P6 to the antibiotic: S: susceptible; I: intermediate; R: resistance
Settings: for MIC: Lactiplantibacillus plantarum, P6, read-out: Minimum inhibitory concentration MIC; for Susceptibility of P6 to the antibiotic (in words): summary of Table 3
Method: The cultured P6 bacteria solution was activated for three generations, and streaked on the MRS solid medium plate, which was then cultured in an anaerobic incubator at 37° C. for 24 hours. A single colony was picked up and dissolved in normal saline to prepare a suspension equivalent to 0.5 […] concentration, which was then coated on an MH solid medium. After drying, ten E-test strips were attached onto the MH solid medium, and cultured at 37° C. for 24-48 hours. The MIC value (minimum inhibitory concentration value) was determined according to the inhibition zone diameter. Escherichia coli ATCC25922 and Staphylococcus aureus ATCC25923 were used as quality-control strains. Quality-control strains were used as control for each batch test, and the MIC of the quality-control strains was required to be within the range specified by CLSI (Clinical and Laboratory Standards […]). An MH solid plate without antibiotics was used as blank control.

[1] = E-test, MH solid medium, 37° C., 24-48 hours

Row | SMILES | MIC [1] [µg/mL] | Susceptibility of P6 to the antibiotic (in words) | Minimum inhibitory concentration MIC [1] [µg/mL] | Susceptibility class of P6 to the antibiotic (E-test, class after the slash in the MIC cell)
1 | NCC[C@H](O)C(=O)N[C@@H]1C[C@H](N)[C@@H](O[C@H]2O[C@H](CN)[C@@H](O)[C@H](O)[C@H]2O)[C@H](O)[C@H]1O[C@H]1O[C@H](CO)[C@@H](O)[C@H](N)[C@H]1O [amikacin] | 2 (≈ 3.42 µM) | extremely susceptible |  | 
2 | CC1(C)S[C@@H]2[C@H](NC(=O)[C@H](N)c3ccccc3)C(=O)N2[C@H]1C(=O)O [ampicillin] | 1.5 (≈ 4.29 µM) | extremely susceptible |  | 
3 | CC[C@H]1OC(=O)[C@H](C)[C@@H](O[C@H]2C[C@@](C)(OC)[C@@H](O)[C@H](C)O2)[C@H](C)[C@@H](O[C@@H]2O[C@H](C)C[C@H](N(C)C)[C@H]2O)[C@](C)(O)C[C@@H](C)CN(C)[C@H](C)[C@@H](O)[C@]1(C)O [azithromycin, Azithromycin] | 0.094 (≈ 0.126 µM) | extremely susceptible |  | 
4 | CO/N=C(\C(=O)N[C@@H]1C(=O)N2C(C(=O)O)=C(CSc3nc(=O)c(=O)[nH]n3C)CS[C@H]12)c1csc(N)n1 [ceftriaxone] | 0.125 (≈ 0.225 µM) | extremely susceptible |  | 
5 | O=C(N[C@H](CO)[C@H](O)c1ccc([N+](=O)[O-])cc1)C(Cl)Cl [chloramphenicol] | 16 (≈ 49.5 µM) | intermediately susceptible |  | 
6 | CCC[C@@H]1C[C@@H](C(=O)N[C@@H]([C@H]2O[C@H](SC)[C@H](O)[C@@H](O)[C@H]2O)[C@H](C)Cl)N(C)C1 [clindamycin] | 0.016 (≈ 0.0376 µM) |  |  | 
7 | CC[C@H]1OC(=O)[C@H](C)[C@@H](O[C@H]2C[C@@](C)(OC)[C@@H](O)[C@H](C)O2)[C@H](C)[C@@H](O[C@@H]2O[C@H](C)C[C@H](N(C)C)[C@H]2O)[C@](C)(O)C[C@@H](C)C(=O)[C@H](C)[C@@H](O)[C@]1(C)O [erythromycin] | 0.38 (≈ 0.518 µM) | extremely susceptible |  | 
8 | CC1(C)S[C@@H]2[C@H](NC(=O)Cc3ccccc3)C(=O)N2[C@H]1C(=O)O [penicillin G] |  | resistant | 32 (≈ 95.7 µM) | R
9 | CN(C)[C@@H]1C(O)=C(C(N)=O)C(=O)[C@@]2(O)C(O)=C3C(=O)c4c(O)cccc4[C@@](C)(O)[C@H]3C[C@@H]12 [tetracycline] | 256 (≈ 576 µM) |  |  | 
